Measured values taken from patent US10538496B2, “Methods using HDAC11 inhibitors” (FORMA Therapeutics, Inc., priority 2016, dated 2020).

Columns and labels:
[1] = test system: HEL 92.1.7 cells; assay: Cell proliferation assay (CCK8); assay type: cell-based; conditions: 48h
Protocol: (§1) This example describes inhibition of in vitro cell proliferation with exemplary HDAC11 inhibitors. The effects of selective HDAC11 inhibitors on cell proliferation were measured in cell lines containing the MPN-associated mutations MPL W515L (Ba/F3 MPL W515L) and JAK2 V617F (Ba/F3 JAK2 V617F, HEL 92.1.7, SET-2). HEL 92.1.7 and SET-2 cells were purchased from the ATCC and DSMZ, respectively. Ba/F3 cells overexpressing either MPLW515L or JAK2V617F, which were cytokine independent, were generated by transforming Ba/F3 cells with retroviruses overexpressing either MPL W515L or JAK2V617F. For survival assays, cells were seeded in 96-well plates at the density of 0.1 million/ml with addition of indicated compounds and incubated at 37° C. for 48h. CCK8 solution (Dojindo, Rockville, Md.) was added and absorbance at 450 nm was measured after 3 hours of incubation. Readings were normalized to dimethylsulfoxide (DMSO)-treated wells.

[2] = test system: SET-2 cells; assay: Cell proliferation assay (CCK8); assay type: cell-based; conditions: FIG. 4 legend
Protocol: as §1

Structure (SMILES): N#CC[C@H](C1CCCC1)n1cc(-c2ncnc3[nH]ccc23)cn1 [ruxolitinib, reference compound]
- growth of the HEL 92.1.7 cell line [1]: inhibited
- growth of SET-2 cell line [2]: inhibited
